Test results taken from patent publication US9284303B2, “Benzimidazole cannabinoid agonists bearing a substituted heterocyclic group” (priority 2006, dated 2016).
Read-outs that look alike come from different tables or passages of the source.

What was measured:
[1] = target: T1, human CB2 (hCB2) receptor (Homo sapiens, UniProt P34972); assay: Inhibition of forskolin-activated cAMP production upon activation of hCB2 (HTRF), CHO-K1 cells; type: cell-based; settings: for ratio CB2 agonism over CB1 agonism: Table C-1, selectivity hCB2 over hCB1; for ratio CB2 over CB1 agonism: Table C-3, comparison of art compounds A to E with compounds of the invention; for EC50: forskolin-activated cAMP, pEC50=-log(EC50)
T1 construct: expressed in transfected cells; host or cells: CHO-K1
T1 sequence (P34972 whole entry): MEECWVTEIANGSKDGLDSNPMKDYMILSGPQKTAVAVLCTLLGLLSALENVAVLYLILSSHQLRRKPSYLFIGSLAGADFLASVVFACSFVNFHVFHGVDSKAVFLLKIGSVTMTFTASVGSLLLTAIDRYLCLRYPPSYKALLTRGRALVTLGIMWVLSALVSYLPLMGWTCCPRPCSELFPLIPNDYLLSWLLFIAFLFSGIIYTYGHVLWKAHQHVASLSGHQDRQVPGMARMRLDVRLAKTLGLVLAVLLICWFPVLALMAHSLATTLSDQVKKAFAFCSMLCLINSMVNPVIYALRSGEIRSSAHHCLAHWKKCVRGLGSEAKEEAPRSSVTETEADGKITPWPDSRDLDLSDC

[2] = target: T2, human CB1 (hCB1) receptor (Homo sapiens, UniProt P21554); assay: Inhibition of forskolin-activated cAMP production upon activation of hCB1 (HTRF), CHO-K1 cells; type: cell-based; settings: forskolin-activated cAMP, pEC50=-log(EC50); for EC50: CB1 pEC50, hCB1-CHO-K1 cells
T2 construct: expressed in transfected cells; host or cells: CHO-K1
T2 sequence (P21554 whole entry): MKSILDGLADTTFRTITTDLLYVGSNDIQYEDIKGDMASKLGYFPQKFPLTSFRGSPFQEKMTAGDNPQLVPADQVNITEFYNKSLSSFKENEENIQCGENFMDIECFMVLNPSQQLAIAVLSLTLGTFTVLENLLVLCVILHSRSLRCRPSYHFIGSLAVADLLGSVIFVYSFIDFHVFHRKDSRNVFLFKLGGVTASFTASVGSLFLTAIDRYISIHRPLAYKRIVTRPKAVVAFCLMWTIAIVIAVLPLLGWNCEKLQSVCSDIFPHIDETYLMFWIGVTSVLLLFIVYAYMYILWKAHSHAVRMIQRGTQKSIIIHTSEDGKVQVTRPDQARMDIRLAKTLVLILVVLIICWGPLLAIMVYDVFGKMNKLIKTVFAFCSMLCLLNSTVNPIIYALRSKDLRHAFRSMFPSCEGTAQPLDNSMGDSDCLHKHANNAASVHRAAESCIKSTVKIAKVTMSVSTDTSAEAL
In short: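 CHO-K1 cells stably expressing hCB1 (20,000/well) were in HBSS stimulation buffer (1 mM IBMX, 10 mM MgCl2, 0.1% BSA, pH 7.4), with 6 μM forskolin in the compound buffer, 30 min at room temperature in the dark. cAMP was read as HTRF 665/620 ratio, normalized to DMSO and CP55490. Outputs were pEC50 and inhibition at 10 μM relative to CP55490.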

[3] = hCB2-CHO-K1 cells, read-out: CB2 pEC50 (converted)

| Structure (SMILES) | ratio CB2 agonism over CB1 agonism [1] | ratio CB2 over CB1 agonism [1] | EC50 [1, 3] [nM] | EC50 [2] [nM] | melting point [°C] | CB1 pEC50 ([2]; hCB1-CHO-K1 cells) | EC50 ([1]; CB2 pEC50, hCB2-CHO-K1 cells) [nM] | ratio CB2 agonism over CB1 agonism ([1]; listed as 57) | ratio CB2 agonism over CB1 agonism ([1]; listed as 17) |
| --- | --- | --- | --- | --- | --- | --- | --- | --- | --- |
| Cn1cc(S(=O)(=O)c2ccc3c(c2)nc(C(C)(C)C)n3CC2CCOCC2)ccc1=O [Co. No. 28] | >3467 | 3467 | 2.88 | > 10000 | 170 |  |  |  |  |
| Cc1nc(-c2csc(S(=O)(=O)c3ccc4c(c3)nc(C(C)(C)C)n4CC3CCOCC3)c2)no1 [Co. No. 5] | 676 |  | 0.372 | 257 | 192 to 193 |  |  |  |  |
| CC(C)(C)c1nc2cc(S(=O)(=O)c3ccnc(C(N)=O)c3)ccc2n1CC1CCOCC1 [Co. No. 16] | 359 |  | 2.34 | 851 | 247.1 |  |  |  |  |
| CC(C)(C)c1nc2cc(S(=O)(=O)c3sc(S(=O)(=O)N4CCOCC4)cc3Br)ccc2n1CC1CCOCC1 [Co. No. 65] | >3388 |  | 2.95 | > 10000 | 230 |  |  |  |  |
| CC(=O)NCCOc1cc(S(=O)(=O)c2ccc3c(c2)nc(C(C)(C)C)n3CC2CCOCC2)ccn1 [Co. No. 121] | 912 |  | 3.09 | 2820 | 182.3 |  |  |  |  |
| CC(C)(C)c1nc2cc(S(=O)(=O)c3ccnc(F)c3)ccc2n1CC1CCN(C=O)CC1 [Co. No. 112] | >2030 |  | 4.9 | > 10000 | 196.7 |  |  |  |  |
| CC(C)(C)c1nc2cc(S(=O)(=O)c3ccc(C(=O)N4CCOCC4)o3)ccc2n1CC1CCOCC1 [Co. No. 80] | 2483 |  | 4.17 | 10500 | 172.1 |  |  |  |  |
| CC(C)(C)c1nc2cc(S(=O)(=O)c3ccnc(OCCCO)c3)ccc2n1CC1CCOCC1 [Co. No. 152] | 3090 |  | 1.17 |  | 161.5 | 5.44 |  |  |  |
| CCC(CC)Cn1c(C(C)(C)C)nc2cc(S(=O)(=O)c3ccnc(F)c3)ccc21 [Co. No. 147] | >10471 |  | 0.955 | > 10000 | 130.9 |  |  |  |  |
| COc1cc(S(=O)(=O)c2ccc3c(c2)nc(C(C)(C)C)n3CC2CCOCC2)c(F)cn1 [Co. No. 72] | 1525 |  | 0.676 | 1020 | 139.6 to 140.2 |  |  |  |  |
| CC(C)(C)c1nc2cc(S(=O)(=O)c3ccnc(OCC(F)(F)F)c3)ccc2n1CC1CCOCC1 [Co. No. 23] | 398 | 398 | 1.02 | 407 | 166.7 |  |  |  |  |
| CC(C)(C)CCn1c(C(C)(C)C)nc2cc(S(=O)(=O)c3ccnc(F)c3)ccc21 [Co. No. 120] | >4365 |  | 2.29 | > 10000 | 131.5 |  |  |  |  |
| CC(C)(C)c1nc2cc(S(=O)(=O)c3nccc(C(N)=O)n3)ccc2n1CC1CCOCC1 [Co. No. 29] | 417 |  | 3.16 | 1320 | 220 to 222 |  |  |  |  |
| CC(C)(C)Cn1c(C(C)(C)C)nc2cc(S(=O)(=O)c3ccnc(F)c3)ccc21 [Co. No. 127] | 6026 |  |  | > 10000 | 135.4 |  | 1.66 |  |  |
| CC(C)(C)c1nc2cc(S(=O)(=O)c3ccc(C4(C)OCCO4)cn3)ccc2n1CC1CCOCC1 [Co. No. 45] | >3311 |  | 3.02 | > 10000 | 191 |  |  |  |  |
| COC(=O)c1cc(C)c(S(=O)(=O)c2ccc3c(c2)nc(C(C)(C)C)n3CC2CCOCC2)s1 [Co. No. 81] | 2138 |  | 0.501 | 1070 | 185.8 |  |  |  |  |
| CC(C)(C)c1nc2cc(S(=O)(=O)c3ccc(S(C)(=O)=O)s3)ccc2n1CC1CCOCC1 [Co. No. 57] |  |  | 1.1 | 1450 | 216 |  |  | 1328 |  |
| CC(=O)NCc1ccc(S(=O)(=O)c2ccc3c(c2)nc(C(C)(C)C)n3CC2CCOCC2)cn1 [Co. No. 117] | 219 |  | 4.47 | 977 | 199.4 |  |  |  |  |
| COC(=O)c1cc(S(=O)(=O)c2ccc3c(c2)nc(C(C)(C)C)n3CC2CCOCC2)c[nH]1 [Co. No. 75] | 2291 |  | 4.17 | 9550 | 231 |  |  |  |  |
| CC(=O)c1ccc(S(=O)(=O)c2ccc3c(c2)nc(C(C)(C)C)n3CC2CCOCC2)cn1 [Co. No. 50] | 6457 |  | 0.692 | 4470 | 162 |  |  |  |  |
| CC(=O)c1ccc(S(=O)(=O)c2ccc3c(c2)nc(C(C)(C)C)n3CC2CCOCC2)s1 [Co. No. 40] | 193 |  | 1.07 | 209 | 151 |  |  |  |  |
| CC(C)(C)c1nc2cc(S(=O)(=O)c3ccnc(C#N)c3)ccc2n1CC1CCOCC1 [Co. No. 17] |  | 5821 | 1.58 | 9330 | 201.2 |  |  |  | 5821 |
| Cn1ccc(S(=O)(=O)c2ccc3c(c2)nc(C(C)(C)C)n3CC2CCOCC2)cc1=O [Co. No. 69] | 398 |  | 1.74 | 692 | 216 |  |  |  |  |
| CC(=O)N1CCC(Cn2c(C(C)(C)C)nc3cc(S(=O)(=O)c4cnn(C)c4)ccc32)CC1 [Co. No. 168] | >1230 |  | 8.13 | > 10000 | 166.2 |  |  |  |  |
